Experimental data: US9623016B2, “Antibacterial compounds” (Emergent Virology LLC, priority 2013, dated 2017)
In brackets after ≈: the same amount, converted by molar mass.

Key:
S. aureus (USA300) [1] = assay: Minimum Inhibitory Concentration (MIC); format: cell-based; details: for visible growth: Table 3; for growth (OD600): Table 4
Experimental: The MIC assay is a technique used to determine the lowest concentration of a particular antibiotic needed to inhibit visible growth of bacteria. In this method, two fold serial dilutions of the compound were prepared in broth media. An inoculum of overnight bacterial cultures will be prepared in the same broth medium. The serial dilution tubes will be inoculated with 0.025 ml of undiluted over-night culture (1:100), a 1×10-2 dilution (1:10,000), or a 1×10-4 dilution (1:1,000,000) of bacterial suspension. Results were recorded after 24 hour incubation at 35° C. without shaking by measuring OD600. The MIC is determined by the lowest concentration of compound where no growth is visible.

B. subtilus ATCC 6051 = assay: Disc diffusion; format: cell-based
Experimental: (§1) Different concentrations of antimicrobial discs were made by incorporation of defined amount of the compound and were stored in a refrigerator (4° C.). Plates were swabbed in three directions with test bacteria to give uniform growth with 0.5 McFarland inocula. Antimicrobial discs were applied to the plates as soon as possible, but no longer than 15 minutes after inoculation. The plates were incubated at 37° C. for 18 hours. The growth inhibition zones around the disc were measured.

[2] = test system: E. coli In-house WT (SLR-IBT); assay: Disc diffusion; format: cell-based
Experimental: as §1

E. coli K12 = assay: Disc diffusion; format: cell-based
Experimental: as §1

S. aureus Col (MRSA) = assay: Disc diffusion; format: cell-based
Experimental: as §1

S. aureus USA300 = assay: Disc diffusion; format: cell-based
Experimental: as §1

P. aeruginosa 4961 = assay: Disc diffusion; format: cell-based
Experimental: as §1

S. aureus 8325-4 = assay: Disc diffusion; format: cell-based
Experimental: as §1

P. aeruginosa 4858 [3] = assay: Disc diffusion; format: cell-based
Experimental: as §1

S. pneumoniae ATCC 6301 = assay: Disc diffusion; format: cell-based
Experimental: as §1

P. aeruginosa 4990 = assay: Disc diffusion; format: cell-based
Experimental: as §1

[4] = test system: Staphylococcus aureus USA300
Experimental: The challenge inoculum included 6.13e4 cfu USA300+3% Hog mucin which causes bacteremia/sepsis within 24-72 h. […] The mice used were 6-8 week old female BALB/c mice in groups of 10. One group of 5 mice was also included to examine the potential toxicity of 3% hog mucin. Endpoint was day 10 post infection, death, or euthanasia Animals displaying severe illness as determined by >30% weight loss, extreme lethargy, or paralysis were euthanized. Observation included daily weight, health checks, and temperatures starting with the initiation of dosing until 10 days post challenge.

S. aureus (8324-5) = assay: Minimum Bactericidal Concentration (MBC); format: cell-based
Experimental: (§2) MBC is the lowest concentration of compound required to kill an organism. […] In the case of small colony variants, growth might not occur earlier than 48 hours.

S. aureus (USA300) [5] = assay: Minimum Bactericidal Concentration (MBC); format: cell-based
Experimental: as §2

B. subtilis = assay: Minimum Bactericidal Concentration (MBC); format: cell-based
Experimental: as §2

S. aureus (Col) = assay: Minimum Bactericidal Concentration (MBC); format: cell-based
Experimental: as §2

P. aeruginosa 4858 [6] = assay: Minimum Bactericidal Concentration (MBC); format: cell-based
Experimental: as §2

S. aureus = assay: Minimum Bactericidal Concentration (MBC); format: cell-based; details: UV-5; S. Aureus NCTC8325-4
Experimental: as §2

For CC[C@H]1OC(=O)[C@H](C)[C@@H](O[C@H]2C[C@@](C)(OC)[C@@H](O)[C@H](C)O2)[C@H](C)[C@@H](O[C@@H]2O[C@H](C)C[C@H](N(C)C)[C@H]2O)[C@](C)(O)C[C@@H](C)C(=O)[C@H](C)[C@@H](O)[C@]1(C)O [Erythromycin, reference compound], the visible growth (S. aureus (USA300) [1]; Erythromycin 0.20 ug/ml) was “+”, the “growth (OD600)” value (S. aureus (USA300) [1]; Erythromycin 0.20 ug/ml) was “+ (+ OD600 <0.05)” and the visible growth (S. aureus (USA300) [1]; Erythromycin 0.39 ug/ml) was “+”. For the same molecule, the “growth (OD600)” value (S. aureus (USA300) [1]; Erythromycin 0.39 ug/ml) was “+ (+ OD600 <0.05)”, the visible growth (S. aureus (USA300) [1]; Erythromycin 0.78 ug/ml) was “+” and the “growth (OD600)” value (S. aureus (USA300) [1]; Erythromycin 0.78 ug/ml) was “+ (+ OD600 <0.05)”. For the same molecule, the visible growth (S. aureus (USA300) [1]; Erythromycin 1.56 ug/ml) was “+”, the “growth (OD600)” value (S. aureus (USA300) [1]; Erythromycin 1.56 ug/ml) was “+ (+ OD600 <0.05)” and the visible growth (S. aureus (USA300) [1]; Erythromycin 3.13 ug/ml) was “+”. The “growth (OD600)” value (S. aureus (USA300) [1]; Erythromycin 3.13 ug/ml) was “+ (+ OD600 <0.05)”, the visible growth (S. aureus (USA300) [1]; Erythromycin 6.25 ug/ml) was “+” and the “growth (OD600)” value (S. aureus (USA300) [1]; Erythromycin 6.25 ug/ml) was “+ (+ OD600 <0.05)”. The visible growth (S. aureus (USA300) [1]; Erythromycin 25.00 ug/ml) was “−”, the “growth (OD600)” value (S. aureus (USA300) [1]; Erythromycin 25.00 ug/ml) was “− (− OD600 >0.05)” and the visible growth (S. aureus (USA300) [1]; Erythromycin 50 ug/ml) was “−”. The “growth (OD600)” value (S. aureus (USA300) [1]; Erythromycin 50 ug/ml) was “− (− OD600 >0.05)”, the visible growth (S. aureus (USA300) [1]; Erythromycin 100 ug/ml) was “−” and the “growth (OD600)” value (S. aureus (USA300) [1]; Erythromycin 100 ug/ml) was “− (− OD600 >0.05)”. The zone of inhibition at 10 µg/disc (B. subtilus ATCC 6051; read-out: Inhibition zone diameter) was 35 mm, the zone of inhibition at 10 µg/disc ([2]; Escherichia coli, read-out: Inhibition zone diameter) was 15 mm and the zone of inhibition at 10 µg/disc (E. coli K12; Escherichia coli, K12, read-out: Inhibition zone diameter) was 20 mm. The zone of inhibition at 10 µg/disc (S. aureus Col (MRSA); Staphylococcus aureus, MRSA, read-out: Inhibition zone diameter) was 42 mm, the zone of inhibition at 10 µg/disc (S. aureus USA300; Staphylococcus aureus, USA300, read-out: Inhibition zone diameter) was 15 mm and the zone of inhibition at 10 µg/disc (P. aeruginosa 4961; Pseudomonas aeruginosa, 4961, read-out: Inhibition zone diameter) was 18 mm. The zone of inhibition at 10 µg/disc (S. aureus 8325-4; Staphylococcus aureus, 83254, read-out: Inhibition zone diameter) was 35 mm, the zone of inhibition at 10 µg/disc (P. aeruginosa 4858 [3]; Pseudomonas aeruginosa, 4858, read-out: Inhibition zone diameter) was 8 mm and the zone of inhibition at 10 µg/disc (S. pneumoniae ATCC 6301; Streptococcus pneumoniae, ATCC6301, read-out: Inhibition zone diameter) was 38 mm. For the same molecule, the zone of inhibition at 10 µg/disc (P. aeruginosa 4990; Pseudomonas aeruginosa, 4990, read-out: Inhibition zone diameter) was 20 mm.

For [N-]=[N+]=Nc1ccc(NCCCCCCN2C[C@H](O)[C@@H](O)[C@H](O)[C@H]2CO)c([N+](=O)[O-])c1 [UV-5, N—(N-{4′-azido-2′-nitrophenyl}-6-aminohexyl)deoxynojirimycin], the “significance of survival increase vs water” value ([4]; 100 mg/kg UV-5 BID) was “not a statistically significant increase in survival”, the survival ([4]; 100 mg/kg UV-5 orally BID for 10 days, from 3 days before IP challenge, water control 30%) was 70% and the “toxicity at the dose/regimen used” value ([4]; 100 mg/kg UV-5 orally BID, mice) was “some toxicity was observed”. For the same molecule, the Inhibition zone diameter (B. subtilus ATCC 6051; UV-5 160 ug disc) was 18 mm, the Inhibition zone diameter ([2]; UV-5 160 ug disc) was 15 mm and the Inhibition zone diameter (E. coli K12; UV-5 160 ug disc) was 12 mm. The Inhibition zone diameter (S. aureus Col (MRSA); UV-5 160 ug disc) was 16 mm, the Inhibition zone diameter (S. aureus USA300; UV-5 160 ug disc) was 16 mm and the Inhibition zone diameter (P. aeruginosa 4961; UV-5 160 ug disc) was 14 mm. For the same molecule, the Inhibition zone diameter (S. aureus 8325-4; UV-5 160 ug disc) was 16 mm, the Inhibition zone diameter (P. aeruginosa 4858 [3]; UV-5 160 ug disc) was 6 mm and the Inhibition zone diameter (S. pneumoniae ATCC 6301; UV-5 160 ug disc) was 17 mm. For the same molecule, the Inhibition zone diameter (P. aeruginosa 4990; UV-5 160 ug disc) was 6 mm, the “growth after re-inoculation on BHI agar” value (S. aureus (8324-5); UV-5 0.16 mg/ml) was “+” and the “growth after re-inoculation on BHI agar” value (S. aureus (8324-5); UV-5 0.3 mg/ml) was “+”. The “growth after re-inoculation on BHI agar” value (S. aureus (8324-5); UV-5 0.62 mg/ml) was “+”, the “growth after re-inoculation on BHI agar” value (S. aureus (8324-5); UV-5 2.5 mg/ml) was “+” and the “growth after re-inoculation on BHI agar” value (S. aureus (8324-5); UV-5 5 mg/ml) was “+”. For the same molecule, the “growth after re-inoculation on BHI agar” value (S. aureus (8324-5); UV-5 10 mg/ml) was “−”, the “growth after re-inoculation on BHI agar” value (S. aureus (8324-5); UV-5 20 mg/ml) was “−” and the MBC (S. aureus (USA300) [5]; UV-5) was 20000 µg/mL (≈ 47.1 mM). The “growth after re-inoculation on BHI agar” value (S. aureus (USA300) [5]; UV-5 0.16 mg/ml) was “+”, the “growth after re-inoculation on BHI agar” value (S. aureus (USA300) [5]; UV-5 0.3 mg/ml) was “+” and the “growth after re-inoculation on BHI agar” value (S. aureus (USA300) [5]; UV-5 0.62 mg/ml) was “+”. For the same molecule, the “growth after re-inoculation on BHI agar” value (S. aureus (USA300) [5]; UV-5 2.5 mg/ml) was “+”, the “growth after re-inoculation on BHI agar” value (S. aureus (USA300) [5]; UV-5 5 mg/ml) was “+” and the “growth after re-inoculation on BHI agar” value (S. aureus (USA300) [5]; UV-5 10 mg/ml) was “+”. For the same molecule, the “growth after re-inoculation on BHI agar” value (S. aureus (USA300) [5]; UV-5 20 mg/ml) was “−”, the MBC (B. subtilis; UV-5) was 2500 µg/mL (≈ 5.89 mM) and the “growth after re-inoculation on BHI agar” value (B. subtilis; UV-5 0.16 mg/ml) was “+”. The “growth after re-inoculation on BHI agar” value (B. subtilis; UV-5 0.3 mg/ml) was “+”, the “growth after re-inoculation on BHI agar” value (B. subtilis; UV-5 0.62 mg/ml) was “+” and the “growth after re-inoculation on BHI agar” value (B. subtilis; UV-5 10 mg/ml) was “−”. For the same molecule, the “growth after re-inoculation on BHI agar” value (B. subtilis; UV-5 20 mg/ml) was “−”, the “growth after re-inoculation on BHI agar” value (S. aureus (Col); UV-5 0.16 mg/ml) was “+” and the “growth after re-inoculation on BHI agar” value (S. aureus (Col); UV-5 0.3 mg/ml) was “+”. For the same molecule, the “growth after re-inoculation on BHI agar” value (S. aureus (Col); UV-5 0.62 mg/ml) was “+”, the “growth after re-inoculation on BHI agar” value (S. aureus (Col); UV-5 10 mg/ml) was “−” and the “growth after re-inoculation on BHI agar” value (S. aureus (Col); UV-5 20 mg/ml) was “−”. The MBC (S. aureus (Col); UV-5, S. aureus COL MRSA) was 2500 µg/mL (≈ 5.89 mM), the MBC (P. aeruginosa 4858 [6]; UV-5) was 5000 µg/mL (≈ 11.8 mM) and the “growth after re-inoculation on BHI agar” value (P. aeruginosa 4858 [6]; UV-5 0.16 mg/ml) was “+”. For the same molecule, the “growth after re-inoculation on BHI agar” value (P. aeruginosa 4858 [6]; UV-5 0.3 mg/ml) was “+”, the “growth after re-inoculation on BHI agar” value (P. aeruginosa 4858 [6]; UV-5 0.62 mg/ml) was “+” and the “growth after re-inoculation on BHI agar” value (P. aeruginosa 4858 [6]; UV-5 2.5 mg/ml) was “+”. The “growth after re-inoculation on BHI agar” value (P. aeruginosa 4858 [6]; UV-5 5 mg/ml) was “−”, the “growth after re-inoculation on BHI agar” value (P. aeruginosa 4858 [6]; UV-5 10 mg/ml) was “−” and the “growth after re-inoculation on BHI agar” value (P. aeruginosa 4858 [6]; UV-5 20 mg/ml) was “−”. The MBC (S. aureus) was 10000 µg/mL (≈ 23.6 mM).
